This is an account of results in US6875764B1, “Urea and thiourea compounds useful for treatment of coccidiosis” (New Pharma Research Sweden AB, priority 1999, dated 2005).

Assay [1] has as its system Eimeria spp. (E. acervulina, E. maxima, E. necatrix, E. tenella and E. brunetti). Nature of the assay: Prophylactic anticoccidial evaluation in vivo in chickens of Habbared X breed, drug in feed. As to conditions: for Average number of Eimeria spp. oocysts/g faeces, day after hatch 14: day 14 after hatch; for Average number of Eimeria spp. oocysts/g faeces, day after hatch 14 / Average number of Eimeria spp. oocysts/g faeces, day after hatch 15 / Average number of Eimeria spp. oocysts/g faeces, day after hatch 16 / Average number of Eimeria spp. oocysts/g faeces, day after hatch 17 / Average number of Eimeria spp. oocysts/g faeces, day after hatch 18 / Average number of Eimeria spp. oocysts/g faeces, day after hatch 19 / Average number of Eimeria spp. oocysts/g faeces, day after hatch 21: infected orally day 10; for Average number of Eimeria spp. oocysts/g faeces, day after hatch 14 / Average number of Eimeria spp. oocysts/g faeces, day after hatch 15 / Average number of Eimeria spp. oocysts/g faeces, day after hatch 16 / Average number of Eimeria spp. oocysts/g faeces, day after hatch 17 / Average number of Eimeria spp. oocysts/g faeces, day after hatch 18 / Average number of Eimeria spp. oocysts/g faeces, day after hatch 19 / Average number of Eimeria spp. oocysts/g faeces, day after hatch 21 / Mean body weight / Mean amount of feed consumed / Average number of Eimeria spp. oocysts/g faeces, Total: in feed B49 100 ppm, B42 150 ppm, B46 100 ppm, Coxistac 60 ppm; for Average number of Eimeria spp. oocysts/g faeces, day after hatch 15: day 15 after hatch; for Average number of Eimeria spp. oocysts/g faeces, day after hatch 16: day 16 after hatch; for Average number of Eimeria spp. oocysts/g faeces, day after hatch 17: day 17 after hatch; for Average number of Eimeria spp. oocysts/g faeces, day after hatch 18: day 18 after hatch; for Average number of Eimeria spp. oocysts/g faeces, day after hatch 19: day 19 after hatch; for Average number of Eimeria spp. oocysts/g faeces, day after hatch 21: day 21 after hatch; for Mean body weight: final weight; for Mean amount of feed consumed: mean total amount per bird; for Average number of Eimeria spp. oocysts/g faeces, Total: total of days 14 to 21 after hatch; for duration of the anticoccidial infection as compared to Coxistac: B49 100 ppm, B42 150 ppm vs Coxistac 60 ppm. The arrangement: species or system chicken. Here is the method: (§1) The antiparasitic activity of the present compounds as prophylactic agents was evaluated in vivo on 100 one day old (1 day after hatch) chickens of Habbared X breed. The chickens were divided into five groups of 20 birds each, and each group was located in a separate pen (1 m×1 m). The chickens were then fed with unmedicated food up to day 7 after hatch. Fresh water was supplied ad libitum.
(§2) On day 8 after hatch, the five groups were given feed containing the following compounds (1 ppm=1 mg drug/kg feed): • Group #1: B49 (100 ppm); • Group #2: B42 (150 ppm); • Group #3: B46 (100 ppm); • Group #4: Coxistac (60 ppm), a known anticoccidial agent (see U.S. Pat. No. 3,857,948); • Group #5: no drug content (control group).
(§3) The chickens were fed as above on day 8 and 9 after hatch. On day 10 after hatch, each chicken was infected orally by 6 000-7 000 oocysts containing a mixture of 5 mature sporulated strains, namely E. acervulina, E. maxima, E. necatrix, E. tenella and E. brunetti. The groups #1-4 received drug as above from day 10 to 21 after hatch.
(§4) From day 14 to 21 after hatch, fresh fecal droplets were collected and examined daily. The average number of oocysts/g faeces was then calculated in accordance with the co-called Mc-Master technique (Soulsby, 1984).

Assay [2] concerns mixture of 8 mature sporulated strains (E. mitis, E. hagani, E. praecox, E. acervulina, E. maxima, E. necatrix, E. tenella and E. brunetti). Nature of the assay: Prophylactic anticoccidial evaluation in chickens of Arbor Aker breed. It counts as in vivo, chicken. As to conditions: 100 ppm in feed from day 3 after hatch, infected orally day 7. Here is the method: as §1, §2, §3, §4
Moreover, the prophylactic anticoccidial effect of B42, B49 and B51 was also evaluated in chickens of Arbor Aker breed. These trials were conducted by using basically the same test protocol as that used for the chickens of Habbared X breed, albeit with the following modifications: • i) On day 3 after hatch, the tested groups of chickens receieved feed containing 100 ppm of B42, B49, B51 or Coxistac (60 ppm); • ii) On day 7 after hatch, the chickens were infected orally by oocysts containing a mixture of 8 mature sporulated strains, namely E. mitis, E. hagani, E. praecox, E. acervulina, E. maxima, E. necatrix, E. tenella and E. brunetti.

Consider “4-nitro-N-{[4-({4-nitro[(4-nitrophenyl)sulfonyl]anilino}-carbothioyl)-1-piperazinyl]carbothioyl}-N-(4-nitrophenyl)benzenesulfonamide [Compound B46]”, for which, in assay [1] (Habbared X chickens, B46 100 ppm vs Coxistac 60 ppm), the “feed consumption lower in comparison with the Coxistac treated group” value was about 67%. In addition, the body weight gain result in assay [1] (Habbared X chickens, feed containing B46 100 ppm) is listed as “fair body weight gain”. In assay [1], the “Average number of Eimeria spp. oocysts/g faeces, day after hatch 14” value (“Average number … after hatch 14” for short) is reported as 0.0 oocysts/g faeces; the “Average number of Eimeria spp. oocysts/g faeces, day after hatch 15” value (shortened to “Average number … after hatch 15”) turned out to be 3000 oocysts/g faeces; the “Average number of Eimeria spp. oocysts/g faeces, day after hatch 16” value (“Average number … after hatch 16” below) worked out at 14000 oocysts/g faeces; the “Average number of Eimeria spp. oocysts/g faeces, day after hatch 17” value (from here on “Average number … after hatch 17”) was found to be 99000 oocysts/g faeces. In assay [1], the “Average number of Eimeria spp. oocysts/g faeces, day after hatch 18” value (shortened to “Average number … after hatch 18”) is 6000 oocysts/g faeces; the “Average number of Eimeria spp. oocysts/g faeces, day after hatch 19” value (“Average number … after hatch 19” below) was determined as 0.0 oocysts/g faeces; the “Average number of Eimeria spp. oocysts/g faeces, day after hatch 21” value (from here on “Average number … after hatch 21”) worked out at 0.0 oocysts/g faeces; the “Mean body weight” value is given as 54.5 g. For the same compound, in assay [1], the “Mean amount of feed consumed” value stood at 39.3 g and the “Average number of Eimeria spp. oocysts/g faeces, Total” value (shortened to “Average number … Total”) came out at 122000 oocysts/g faeces.
As for `O=[N+]([O-])c1ccc(S(=O)(=O)N(C(=S)N(c2nc3ccc([N+](=O)[O-])cc3s2)S(=O)(=O)c2ccc([N+](=O)[O-])cc2)c2ccc(F)cc2)cc1` [Compound B42, N-(4-fluorophenyl)-4-nitro-N-({(6-nitro-1,3-benzothiazol-2-yl)[(4-nitrophenyl)sulfonyl]amino}carbothioyl)benzene-sulfonamide], in assay [1] (Habbared X chickens), the “duration of the anticoccidial infection as compared to Coxistac” value is listed as “shorter”. In assay [1], the “Average number … after hatch 14” value was 0.0 oocysts/g faeces; the “Average number … after hatch 15” value came out at 0.0 oocysts/g faeces; the “Average number … after hatch 16” value was determined as 3000 oocysts/g faeces; the “Average number … after hatch 17” value amounted to 7000 oocysts/g faeces. Also, in assay [1], the “Average number … after hatch 18” value amounted to 0.0 oocysts/g faeces; the “Average number … after hatch 19” value came to 0.0 oocysts/g faeces; the “Average number … after hatch 21” value was determined as 0.0 oocysts/g faeces; the “Mean body weight” value is on record as 61.0 g. In assay [1], the “Mean amount of feed consumed” value came to 93 g and the “Average number … Total” value worked out at 10000 oocysts/g faeces. For the same compound, the “prophylactic anticoccidial effect, results in words” value (shortened to “prophylactic anticoccidial effect”) in assay [2] is “essentially the same as those reported for the trials with the chickens of Habbared X breed”.
Turning to `O=C(O)c1cc(I)c(NC(=S)Nc2ccccc2)c(I)c1` [Compound B49, 4-[(anilinocarbothioyl)amino]-3,5-diiodobenzoic acid], the “duration of the anticoccidial infection as compared to Coxistac” value in assay [1] (Habbared X chickens) was “shorter”. Also, in assay [1], the “Average number … after hatch 14” value stood at 0.0 oocysts/g faeces; the “Average number … after hatch 15” value is on record as 3000 oocysts/g faeces; the “Average number … after hatch 16” value was 10000 oocysts/g faeces; the “Average number … after hatch 17” value is reported as 20000 oocysts/g faeces. Besides, in assay [1], the “Average number … after hatch 18” value is on record as 0.0 oocysts/g faeces; the “Average number … after hatch 19” value was determined as 0.0 oocysts/g faeces; the “Average number … after hatch 21” value was found to be 0.0 oocysts/g faeces; the “Mean body weight” value came to 66.0 g. For the same compound, in assay [1], the “Mean amount of feed consumed” value is on record as 95 g and the “Average number … Total” value is 33000 oocysts/g faeces. The “prophylactic anticoccidial effect” value in assay [2] is given as “essentially the same as those reported for the trials with the chickens of Habbared X breed”.
Regarding `N#Cc1ccc(NC(=S)Nc2ccc([N+](=O)[O-])cc2)cc1` [Compound B51, N-(4-cyanophenyl)-N′-(4-nitrophenyl) thiourea], in assay [2], the “prophylactic anticoccidial effect” value was “comparable with those of B42”.
Regarding `CC[C@@H](C(=O)[C@@H](C)[C@@H](O)[C@H](C)[C@@H]1O[C@@H]([C@@H](CC)C(=O)O)CC[C@@H]1C)[C@H]1O[C@]2(C=C[C@@H](O)[C@]3(CC[C@@](C)([C@H]4CC[C@](O)(CC)[C@H](C)O4)O3)O2)[C@H](C)C[C@@H]1C` [Coxistac, reference compound], in assay [1], the “Average number … after hatch 14” value worked out at 0.0 oocysts/g faeces; the “Average number … after hatch 15” value is reported as 3000 oocysts/g faeces; the “Average number … after hatch 16” value turned out to be 4000 oocysts/g faeces; the “Average number … after hatch 17” value is 7000 oocysts/g faeces. For the same compound, in assay [1], the “Average number … after hatch 18” value is recorded as 2000 oocysts/g faeces; the “Average number … after hatch 19” value is 2000 oocysts/g faeces; the “Average number … after hatch 21” value is given as 0.0 oocysts/g faeces; the “Mean body weight” value came out at 62.0 g. In assay [1], the “Mean amount of feed consumed” value was 120 g and the “Average number … Total” value worked out at 18000 oocysts/g faeces.
